In US20040121954A1, “Poly(dipeptide) as a drug carrier” (priority 1999, published 2004):

Test system: PC3 (prostate); KB (nasopharyngeal); MDA MB 231 (breast)
Test: In vitro cell culture assay (MTT), cell inhibition in three human tumor cell lines
Conditions: 72 hours

## CC(=O)O[C@H]1C(=O)[C@@]2(C)[C@H]([C@H](OC(=O)c3ccccc3)[C@]3(O)C[C@H](OC(=O)[C@H](O)[C@@H](NC(=O)c4ccccc4)c4ccccc4)C(C)=C1C3(C)C)[C@]1(OC(C)=O)CO[C@@H]1C[C@@H]2O [paclitaxel]
  cell inhibition at lower concentrations: more pronounced
